tested on: Ba/F3-CDM cells (Ba/F3 transfected with CD8-MerTK); experiment: In cell MER kinase assay, Ba/F3-CDM cell proliferation without IL-3 (Celltiter-Glo, GI50); format: cell-based, murine; conditions: 48 hours, read-out: Cell growth inhibition (GI50)
Procedure: In Cell MER Kinase Assay Using BaF3 Cellular System
To establish an in cell kinase assay for MerTK kinase, the IL-3 dependent Ba/F3 cells of murine lymphoid origin was transfected with CD8-MerTK. […] For a routine cellular assay, Ba/F3-CDM cells were seeded at 2,000 cells per well in 384-well cell culture plate containing DMEM/10% FBS culture media and incubated for 24 hours before addition of compounds pre-diluted in culture media. Following compound treatment, cells were further incubated for 48 hours and the proliferation was measured. To discriminate a Ba/F3 growth inhibition by a specific inhibition of MerTK kinase following compound treatment vs growth inhibition due to a non-specific unintended cytotoxicity of compounds, we routinely carried out control sets of Ba/F3 cells in parallel that grown in IL3-supplemented growth media. In the presence of IL-3, the proliferation of Ba/F3 is no longer dependent on the MerTK activity. Cell growth and proliferation was measured with Celltiter-Glo™ system (Promega, USA) according to the manufacturer's instruction. The half-maximal growth inhibitory concentration (GI50) value was calculated with Prism6.0 software (GraphPad, USA).

GI50 | Structure (SMILES)
< 100 nM | CC(c1ccc(-c2ccc(CO[C@H]3CCC[C@@H]3NC(=O)c3cc(-c4cncc(F)c4)cnc3N)cc2)cc1)N1CCN(C)CC1 (stereo partly drawn) [Example 230, 6-amino-5′-fluoro-N-((1S,2S)-2-((4′-(1-(4-methylpiperazin-1-yl)ethyl)-[1,1′-biphenyl]-4-yl)methoxy)cyclopentyl)-[3,3′-bipyridine]-5-carboxamide]
< 100 nM | CC(c1ccc(-c2ccc(CO[C@H]3CCC[C@@H]3NC(=O)c3cc(-c4cncc(F)c4)cnc3N)cc2)cc1)N1CCN(CCO)CC1 (stereo partly drawn) [Example 236, 6-amino-5′-fluoro-N-((1S,2S)-2-((4′-(1-(4-(2-hydroxyethyl)-piperazin-1-yl)ethyl)-[1,1′-biphenyl]-4-yl)methoxy)cyclopentyl)-[3,3′-bipyridine]-5-carboxamide]
< 100 nM | CC(c1ccc(-c2ccc(CO[C@H]3CCC[C@@H]3NC(=O)c3cc(-c4ccc(F)nc4)cnc3N)cc2)cc1)N1CCN(CCO)CC1 (stereo partly drawn) [Example 237, 6-amino-6′-fluoro-N-((1S,2S)-2-((4′-(1-(4-(2-hydroxyethyl)-piperazin-1-yl)ethyl)-[1,1′-biphenyl]-4-yl)methoxy)cyclopentyl)-[3,3′-bipyridine]-5-carboxamide]
< 100 nM | CC(c1ccc(-c2ccc(CO[C@H]3CCC[C@@H]3NC(=O)c3cc(-c4cccnc4F)cnc3N)cc2)cc1)N1CCN(CCO)CC1 (stereo partly drawn) [Example 238, 6-amino-2′-fluoro-N-((1S,2S)-2-((4′-(1-(4-(2-hydroxyethyl)-piperazin-1-yl)ethyl)-[1,1′-biphenyl]-4-yl)methoxy)cyclopentyl)-[3,3′-bipyridine]-5-carboxamide]
< 100 nM | CN1CCC(Cc2ccc(-c3ccc(CO[C@H]4CCC[C@@H]4NC(=O)c4cc(-c5cnn(C)c5)cnc4N)cc3)cc2)CC1 [Example 239, 2-amino-5-(1-methyl-1H-pyrazol-4-yl)-N-((1S,2S)-2-((4′-((1-methylpiperidin-4-yl)methyl)-[1,1′-biphenyl]-4-yl)methoxy)cyclopentyl)nicotinamide]
< 100 nM | Cn1cc(-c2cnc(N)c(C(=O)N[C@H]3CCC[C@@H]3OCc3ccc(-c4ccc(CC5CCN(CCO)CC5)cc4)cc3)c2)cn1 [Example 240, 2-amino-N-((1S,2S)-2-((4′-((1-(2-hydroxyethyl)piperidin-4-yl)-methyl)-[1,1′-biphenyl]-4-yl)methoxy)cyclopentyl)-5-(1-methyl-1H-pyrazol-4-yl)-nicotinamide]
< 100 nM | Cn1cc(-c2cnc(N)c(C(=O)N[C@H]3CCC[C@@H]3OCc3ccc(-c4ccc(CC5CCN(CC(N)=O)CC5)cc4)cc3)c2)cn1 [Example 242, 2-amino-N-((1S,2S)-2-((4′-((1-(2-amino-2-oxoethyl)piperidin-4-yl)methyl)-[1,1′-biphenyl]-4-yl)methoxy)cyclopentyl)-5-(1-methyl-1H-pyrazol-4-yl)-nicotinamide]
500 to 1000 nM | CN(C)CCOc1ccc(-c2ccc(CO[C@H]3CCC[C@@H]3NC(=O)c3cc(-c4cnn(C)c4)cnc3N)cc2)cc1 [Example 245, 2-amino-N-((1S,2S)-2-((4′-(2-(dimethylamino)ethoxy)-[1,1′-biphenyl]-4-yl)methoxy)cyclopentyl)-5-(1-methyl-1H-pyrazol-4-yl)nicotinamide]
> 1000 nM | Cn1cc(-c2cnc(N)c(C(=O)N[C@H]3CCC[C@@H]3OCc3ccc(C#CCCO)cc3)c2)cn1 [Example 249, 2-amino-N-((1S,2S)-2-((4-(4-hydroxybut-1-yn-1-yl)benzyl)oxy)-cyclopentyl)-5-(1-methyl-1H-pyrazol-4-yl)nicotinamide]
> 1000 nM | Cn1cc(-c2cnc(N)c(C(=O)N[C@H]3CCC[C@@H]3OCc3ccc(C#CCCCCO)cc3)c2)cn1 [Example 251, 2-amino-N-((1S,2S)-2-((4-(6-hydroxyhex-1-yn-1-yl)benzyl)oxy)-cyclopentyl)-5-(1-methyl-1H-pyrazol-4-yl)nicotinamide]
> 1000 nM | Cc1ccc(CO[C@H]2CCC[C@@H]2NC(=O)c2cc(-c3ccc(CN4CCC(N5CCCC5)CC4)c(F)c3)cnc2N)cc1C [Example 325, 2-amino-N-((1S,2S)-2-((3,4-dimethylbenzyl)oxy)cyclopentyl)-5-(3-fluoro-4-((4-(pyrrolidin-1-yl)piperidin-1-yl)methyl)phenyl)nicotinamide]
> 1000 nM | CCc1cc(CO[C@H]2CCC[C@@H]2NC(=O)c2cc(-c3ccc(C(C)(C)N4CCN(CCO)CC4)cc3)cnc2N)ccc1C [Example 360, 2-amino-N-((1S,2S)-2-((3-ethyl-4-methylbenzyl)oxy)cyclopentyl)-5-(4-(2-(4-(2-hydroxyethyl)piperazin-1-yl)propan-2-yl)phenyl)nicotinamide]
< 100 nM | CN1CCN(Cc2ccc(-c3ccc(CO[C@H]4CCC[C@@H]4NC(=O)c4cc(-c5ccc(F)c(F)c5)cnc4N)cc3)cc2)CC1 [Example 364]
< 100 nM | CN1CCC(n2cc(-c3cnc(N)c(C(=O)N[C@H]4CCC[C@@H]4OCc4ccc(-c5ccc(CN6CCN(C)CC6)cc5)cc4)c3)cn2)CC1 [Example 366, 2-amino-N-((1S,2S)-2-((4′-((4-methylpiperazin-1-yl)methyl)-[1,1′-biphenyl]-4-yl)methox)cyclopentyl)-5-(1-(1-methylpiperidin-4-yl)-1H-pyrazol-4-yl)nicotinamide]
< 100 nM | CN1CCN(Cc2ccc(-c3ccc(CO[C@H]4CCC[C@@H]4NC(=O)c4cc(-c5ccc(N6CCN(C)CC6)cc5)cnc4N)cc3)cc2)CC1 [Example 367, 2-amino-N-((1S,2S)-2-((4′-((4-methylpiperazin-1-yl)methyl)-[1,1′-biphenyl]-4-yl)methoxy)cyclopentyl)-5-(4-(4-methylpiperazin-1-yl)phenyl)-nicotinamide]
< 100 nM | CN1CCN(Cc2ccc(-c3ccc(CO[C@H]4CCC[C@@H]4NC(=O)c4cc(-c5ccc(CN6CCN(C)CC6)cc5)cnc4N)cc3)cc2)CC1 [Example 368, 2-amino-N-((1S,2S)-2-((4′-((4-methylpiperazin-1-yl)methyl)-[1,1′-biphenyl]-4-yl)methoxy)cyclopentyl)-5-(4-((4-methylpiperazin-1-yl)methyl)phenyl)nicotinamide]
< 100 nM | CN1CCN(Cc2ccc(-c3ccc(CO[C@H]4CCC[C@@H]4NC(=O)c4cc(-c5ccc(CO)cc5)cnc4N)cc3)cc2)CC1 [Example 369, 2-amino-5-(4-(hydroxymethyl)phenyl)-N-((1S,2S)-2-((4′-((4-methylpiperazin-1-yl)methyl)-[1,1′-biphenyl]-4-yl)methoxy)cyclopentyl)nicotinamide]
< 100 nM | Cc1cccc(-c2cnc(N)c(C(=O)N[C@H]3CCC[C@@H]3OCc3ccc(-c4ccc(CN5CCN(C)CC5)cc4)cc3)c2)c1 [Example 370, 2-amino-N-((1S,2S)-2-((4′-((4-methylpiperazin-1-yl)methyl)-[1,1′-biphenyl]-4-yl)methoxy)cyclopentyl)-5-(m-tolyl)nicotinamide]
< 100 nM | CN1CCN(Cc2ccc(-c3ccc(CO[C@H]4CCC[C@@H]4NC(=O)c4cc(-c5ccccc5)cnc4N)cc3)cc2)CC1 [Example 371, 2-amino-N-((1S,2S)-2-((4′-((4-methylpiperazin-1-yl)methyl)-[1,1′-biphenyl]-4-yl)methoxy)cyclopentyl)-5-phenyl nicotinamide]
< 100 nM | CN1CCN(Cc2ccc(-c3ccc(CO[C@H]4CCC[C@@H]4NC(=O)c4cc(-c5ccc(O)cc5)cnc4N)cc3)cc2)CC1 [Example 372, 2-amino-5-(4-hydroxyphenyl)-N-((1S,2S)-2-((4′-((4-methyl-piperazin-1-yl)methyl)-[1,1′-biphenyl]-4-yl)methoxy)cyclopentyl)nicotinamide]
< 100 nM | CN1CCN(Cc2ccc(-c3ccc(CO[C@H]4CCC[C@@H]4NC(=O)c4cc(-c5cccnc5)cnc4N)cc3)cc2)CC1 [Example 375, 6-amino-N-((1S,2S)-2-((4′-((4-methylpiperazin-1-yl)methyl)-[1,1′-biphenyl]-4-yl)methoxy)cyclopentyl)-[3,3′-bipyridine]-5-carboxamide]
< 100 nM | COc1ccc(-c2cnc(N)c(C(=O)N[C@H]3CCC[C@@H]3OCc3ccc(-c4ccc(CN5CCN(C)CC5)cc4)cc3)c2)cc1 [Example 376, 2-amino-5-(4-methoxyphenyl)-N-((1S,2S)-2-((4′-((4-methyl-piperazin-1-yl)methyl)-[1,1′-biphenyl]-4-yl)methoxy)cyclopentyl)nicotinamide]
< 100 nM | CN1CCN(Cc2ccc(-c3ccc(CO[C@H]4CCC[C@@H]4NC(=O)c4cc(-c5ccncc5)cnc4N)cc3)cc2)CC1 [Example 377, 6-amino-N-((1S,2S)-2-((4′-((4-methylpiperazin-1-yl)methyl)-[1,1′-biphenyl]-4-yl)methoxy)cyclopentyl)-[3,4′-bipyridine]-5-carboxamide]
< 100 nM | CC1CCN(Cc2ccc(-c3cnc(N)c(C(=O)N[C@H]4CCC[C@@H]4OCc4ccc(-c5ccc(CN6CCN(C)CC6)cc5)cc4)c3)cc2)CC1 [Example 378, 2-amino-N-((1S,2S)-2-((4′-((4-methylpiperazin-1-yl)methyl)-[1,1′-biphenyl]-4-yl)methoxy)cyclopentyl)-5-(4-((4-methylpiperidin-1-yl)methyl)phenyl)-nicotinamide]
< 100 nM | CN1CCN(Cc2ccc(-c3ccc(CO[C@H]4CCC[C@@H]4NC(=O)c4cc(-c5ccc(CN6CCOCC6)cc5)cnc4N)cc3)cc2)CC1 [Example 379, 2-amino-N-((1S,2S)-2-((4′-((4-methylpiperazin-1-yl)methyl)-[1,1′-biphenyl]-4-yl)methoxy)cyclopentyl)-5-(4-(morpholinomethyl)phenyl)nicotinamide]
